Results from ChEMBL document CHEMBL5346923, “Novel pyridinium cationic pleuromutilin analogues overcoming bacterial multidrug resistance” (Eur J Med Chem, 2023).
In brackets after ≈: the same amount, converted by molar mass.

Tests used:
Type in all cases: functional
Enterococcus = experiment: Antibacterial activity against vancomycin-resistant Enterococcus ATCC 700221 assessed as inhibition of bacterial growth measured after 24 hrs by MH broth based assay
Staphylococcus aureus [1] = experiment: Antibacterial activity against Staphylococcus aureus ATCC 29213 assessed as inhibition of bacterial growth measured after 24 hrs by MH broth based assay
Klebsiella pneumoniae = experiment: Antibacterial activity against Klebsiella pneumonia CMCC (B) 46117 assessed as inhibition of bacterial growth measured after 24 hrs by MH broth based assay
Streptococcus pneumoniae = experiment: Antibacterial activity against Streptococcus pneumoniae ATCC 49619 assessed as inhibition of bacterial growth measured after 24 hrs by MH broth based assay
Escherichia coli [2] = experiment: Antibacterial activity against Escherichia coli MG1655 assessed as inhibition of bacterial growth measured after 24 hrs by MH broth based assay
Bacillus subtilis = experiment: Antibacterial activity against Bacillus subtilis ATCC 6633 assessed as inhibition of bacterial growth measured after 24 hrs by MH broth based assay
Staphylococcus aureus [3] = experiment: Antibacterial activity against methicillin-resistant Staphylococcus aureus ATCC 43300 assessed as inhibition of bacterial growth measured after 24 hrs by MH broth based assay
Escherichia coli [4] = experiment: Antibacterial activity against Escherichia coli MG1655 harbouring acrB gene assessed as inhibition of bacterial growth measured after 24 hrs by MH broth based assay
Escherichia coli [5] = experiment: Antibacterial activity against Escherichia coli ATCC 25922 assessed as inhibition of bacterial growth measured after 24 hrs by MH broth based assay
[6] = system: Staphylococcus epidermidis; experiment: Antibacterial activity against methicillin-resistant Staphylococcus epidermidis ATCC 51625 assessed as inhibition of bacterial growth measured after 24 hrs by MH broth based assay
Proteus = experiment: Antibacterial activity against Proteus CMCC (B) 49027 assessed as inhibition of bacterial growth measured after 24 hrs by MH broth based assay

| Compound | MIC (Enterococcus) [mg/L] | MIC (Staphylococcus aureus [1]) [mg/L] | MIC (Klebsiella pneumoniae) [mg/L] | MIC (Streptococcus pneumoniae) [mg/L] | MIC (Escherichia coli [2]) [mg/L] | MIC (Bacillus subtilis) [mg/L] | MIC (Staphylococcus aureus [3]) [mg/L] | MIC (Escherichia coli [4]) [mg/L] | MIC (Escherichia coli [5]) [mg/L] | MIC [6] [mg/L] | MIC (Proteus) [mg/L] |
| --- | --- | --- | --- | --- | --- | --- | --- | --- | --- | --- | --- |
| C=C[C@]1(C)C[C@@H](OC(=O)CSc2cc[n+](CC3CCCO3)cc2)[C@]2(C)[C@H](C)CC[C@]3(CCC(=O)[C@H]32)[C@@H](C)[C@@H]1O.[I-] (stereo partly drawn) | 64 | 1 | 64 | 0.125 | 64 | 64 | 1 | 2 | 64 | 0.25 | > 64 |
| C=C[C@]1(C)C[C@@H](OC(=O)CSc2cc[n+](CC(=O)NC3CCCC3)cc2)[C@]2(C)[C@H](C)CC[C@]3(CCC(=O)[C@H]32)[C@@H](C)[C@@H]1O.[I-] | 64 | 4 | 64 | 1 | 64 | > 64 | 4 | 8 | 64 | 1 | > 64 |
| C=C[C@]1(C)C[C@@H](OC(=O)CSc2cc[n+](Cc3ccc(-c4ccccc4C#N)cc3)cc2)[C@]2(C)[C@H](C)CC[C@]3(CCC(=O)[C@H]32)[C@@H](C)[C@@H]1O.[I-] | 32 | 1 | 32 | < 0.031 | 64 | 32 | 1 | 8 | 64 | 0.125 | > 64 |
| C=C[C@]1(C)C[C@@H](OC(=O)CSc2cc[n+](CCCO)cc2)[C@]2(C)[C@H](C)CC[C@]3(CCC(=O)[C@H]32)[C@@H](C)[C@@H]1O.[I-] | 64 | 1 | 32 | 0.25 | 64 | 64 | 1 | 0.5 | 64 | 0.5 | > 64 |
| C=C[C@]1(C)C[C@@H](OC(=O)CSc2cc[n+](CCCCC(=O)O)cc2)[C@]2(C)[C@H](C)CC[C@]3(CCC(=O)[C@H]32)[C@@H](C)[C@@H]1O.[I-] | 64 | 8 | > 64 | 2 | 64 | > 64 | 16 | 16 | > 64 | 4 | > 64 |
| C=C[C@]1(C)C[C@@H](OC(=O)CSc2cc[n+](CCCCCCC(=O)O)cc2)[C@]2(C)[C@H](C)CC[C@]3(CCC(=O)[C@H]32)[C@@H](C)[C@@H]1O.[I-] | 64 | 0.5 | 64 | 0.5 | 64 | 64 | 0.5 | 32 | 64 | 2 | 64 |
| C=C[C@]1(C)C[C@@H](OC(=O)CSc2cc[n+](CCCCCCCC(=O)O)cc2)[C@]2(C)[C@H](C)CC[C@]3(CCC(=O)[C@H]32)[C@@H](C)[C@@H]1O.[I-] | 64 | 8 | > 64 | 2 | > 64 | > 64 | 8 | 32 | > 64 | 4 | > 64 |
| C=C[C@]1(C)C[C@@H](OC(=O)CSc2cc[n+](Cc3ccc(C)cc3)cc2)[C@]2(C)[C@H](C)CC[C@]3(CCC(=O)[C@H]32)[C@@H](C)[C@@H]1O.[I-] | 64 | 0.5 | 32 | < 0.031 | 64 | > 64 | 0.5 | 2 | 64 | 0.063 | > 64 |
| C=C[C@]1(C)C[C@@H](OC(=O)CSc2cc[n+](CC(=O)N3CCCCC3)cc2)[C@]2(C)[C@H](C)CC[C@]3(CCC(=O)[C@H]32)[C@@H](C)[C@@H]1O.[I-] | 64 | 0.25 | 64 | 0.125 | 64 | > 64 | 0.25 | 2 | 64 | 0.125 | > 64 |
| C=C[C@]1(C)C[C@@H](OC(=O)CSc2cc[n+](CCCCCCCCCCCC)cc2)[C@]2(C)[C@H](C)CC[C@]3(CCC(=O)[C@H]32)[C@@H](C)[C@@H]1O.[I-] | 16 | 8 | 32 | 4 | 32 | 8 | 8 | 8 | 32 | 8 | 64 |
| C=C[C@]1(C)C[C@@H](OC(=O)CSc2cc[n+](CC(=O)N3CCCC3)cc2)[C@]2(C)[C@H](C)CC[C@]3(CCC(=O)[C@H]32)[C@@H](C)[C@@H]1O.[I-] | 64 | 4 | 64 | 1 | 64 | > 64 | 4 | 4 | 64 | 2 | > 64 |
| C=C[C@]1(C)C[C@@H](OC(=O)CSc2cc[n+](CCCCCCCCCC)cc2)[C@]2(C)[C@H](C)CC[C@]3(CCC(=O)[C@H]32)[C@@H](C)[C@@H]1O.[I-] | 4 | 0.25 | 2 | 0.125 | 16 | 2 | 1 | 1 | 16 | 0.5 | 64 |
| C#CCC[n+]1ccc(SCC(=O)O[C@@H]2C[C@@](C)(C=C)[C@@H](O)[C@H](C)[C@]34CCC(=O)[C@H]3[C@@]2(C)[C@H](C)CC4)cc1.[I-] | 64 | 0.5 | 64 | 0.125 | 64 | 64 | 0.5 | 1 | 64 | 0.25 | > 64 |
| C=C[C@]1(C)C[C@@H](OC(=O)CSc2cc[n+](Cc3ccc(OC)cc3)cc2)[C@]2(C)[C@H](C)CC[C@]3(CCC(=O)[C@H]32)[C@@H](C)[C@@H]1O.[I-] | 4 | 0.063 | 4 | < 0.031 | 64 | 16 | 0.125 | 0.5 | 64 | 0.031 | > 64 |
| CN[C@H](CC(C)C)C(=O)N[C@H]1C(=O)N[C@@H](CC(N)=O)C(=O)N[C@H]2C(=O)N[C@H]3C(=O)N[C@H](C(=O)N[C@H](C(=O)O)c4cc(O)cc(O)c4-c4cc3ccc4O)[C@H](O)c3ccc(c(Cl)c3)Oc3cc2cc(c3O[C@@H]2O[C@H](CO)[C@@H](O)[C@H](O)[C@H]2O[C@H]2C[C@](C)(N)[C@H](O)[C@H](C)O2)Oc2ccc(cc2Cl)[C@H]1O [VANCOMYCIN] | 64 (≈ 44.2 µM) | – | > 64 | 0.25 (≈ 0.173 µM) | > 64 | 0.125 (≈ 0.0863 µM) | – | > 64 | > 64 | 0.5 (≈ 0.345 µM) | > 64 |
